In ChEMBL document CHEMBL3881528, “Macrocyclic Quinoxaline Compounds as HCV NS3 Protease Inhibitors” (2010):

Key:
[1] = test system: Liver; assay: Covalent protein binding in rat liver at 25 to 75 […], po using radio-labeled compound measured at 6 hrs by scintillation counting method; type: ADME, organism-based; details: in vivo
[2] = test system: Plasma; assay: Covalent protein binding in rat plasma at 25 to 75 […], po using radio-labeled compound measured at 6 hrs by scintillation counting method; type: ADME, organism-based
[3] = Drug level in dog liver at 5 mg/kg, po measured at 24 hrs by RP-HPLC method; type: ADME, organism-based, Canis lupus familiaris; details: read-out: Drug uptake
[4] = Drug level in rat liver at 25 mg/kg, po measured at 24 hrs by RP-HPLC method; type: ADME, organism-based; details: read-out: Drug uptake

PB [1] [pmolequiv/mg]	PB [2] [pmolequiv/mg]	concentration at 24 h [3] [µM]	concentration at 24 h [4] [µM]	Compound
3	3	120	27.9	C=C[C@@H]1C[C@]1(NC(=O)[C@@H]1C[C@@H]2CN1C(=O)[C@H](C(C)(C)C)NC(=O)O[C@@H]1C[C@H]1CCCCCc1nc3ccc(OC)cc3nc1O2)C(=O)[N-]S(=O)(=O)C1CC1.[K+]
24	6			C=C[C@@H]1C[C@]1(NC(=O)[C@@H]1C[C@@H]2CN1C(=O)[C@H](C(C)(C)C)NC(=O)O[C@@H]1CCC[C@H]1CCCCCc1nc3ccc(OC)cc3cc1O2)C(=O)NS(=O)(=O)C1CC1
		3.3	8.5	C=C[C@@H]1C[C@]1(NC(=O)[C@@H]1C[C@@H]2CN1C(=O)[C@H](C(C)(C)C)NC(=O)O[C@@H]1C[C@H]1CCCCCc1nc3ccc(OC)cc3cc1O2)C(=O)[N-]S(=O)(=O)C1CC1.[K+]
63	6			C=C[C@@H]1C[C@]1(NC(=O)[C@@H]1C[C@@H]2CN1C(=O)[C@H](C1CCCC1)NC(=O)O[C@@H]1CCC[C@H]1CCCCCc1nc3ccccc3cc1O2)C(=O)NS(=O)(=O)C1CC1
38	15			C=C[C@@H]1C[C@]1(NC(=O)[C@@H]1C[C@@H]2CN1C(=O)[C@H](C1CCCC1)NC(=O)O[C@@H]1CCC[C@H]1CCCCCc1nc3ccccc3nc1O2)C(=O)NS(=O)(=O)C1CC1
